For one data set, the system named is colon cancer (C26). In kind it is in vivo, Balb mice.
The nature of a further data set: in vivo. The conditions noted are these: mouse.
Where [1] appears, read: dose 3 mg/kg (MTD amount) i.v. at Day 10, evaluated at Day 50.

Description for colon cancer (C26): SMA-THP and pirarubicin (THP) were administered intravenously to mice at the respective dose shown in Table 2 at Day 10 from the inoculation of cancer in mice, and the antitumor effect was evaluated at Day 50. Subsequently, 5×10^5 colon cancer (C26) cells were inoculated in the back in Balb mice and the model animals with tumor size of 5 to 6 mm at about Day 7 to 9 were treated.

What is called LD50 is the dose at which mortality reaches 50%. Low values mean a more toxic substance, high ones a less toxic substance. As for `COc1cccc2c1C(=O)c1c(O)c3c(c(O)c1C2=O)C[C@@](O)(C(=O)CO)C[C@@H]3O[C@H]1C[C@H](N)[C@H](O[C@@H]2CCCCO2)[C@H](C)O1` [THP, pirarubicin], in the data set with colon cancer (C26) (setting [1]), the “Number of Metastatic Cancerous Nodes/Mouse: (1~5) (+), mice/group” value is recorded as 2/5; the “Number of Metastatic Cancerous Nodes/Mouse: (>6) (++), mice/group” value is listed as 3/5; the “Number of Metastatic Cancerous Nodes/Mouse: No Metastasis (−), mice/group” value was 0/5. Further, in the data set on colon cancer (C26) (maximum tolerated dose of 3 mg/kg), the “effect on the metastatic cancers” value is recorded as “almost ineffective”. For the same compound, in the data set “in vivo” (Balb, iv), the MTD was 3 mg/kg. This compound gave an LD50 in “in vivo” of 14.4 mg/kg.
